This assay concerns M109 tumor cells. Description: M109 solid tumor assay, five injections every two days (compared with neocarzinostatin and esperamicin A1). The format is in vivo, female mice. To be noted: for T/C value: reference compounds, dose not given; for lifespan and tumor growth delay (in words): standard compounds, solid tumor. How it is done:
This assay involves development of a solid tumor in a mouse by injection of M109 tumor cells under the skin of the animal. Solid tumors, typically elliptical in shape, rapidly develop on the flank of the mouse at the site of injection. Progress of the tumor is determined by its size which is measured across each axis of the elongated mass. Straightforward computations of tumor volume combined with an assumed density of 1 g per cc yields a weight estimate which is accepted as an indication of the progress of tumor growth. Increase in lifespan (T/C values) of the animal and delay in tumor growth (T-C) to reach a predetermined size (typically measured as weight of the tumor) are generally accepted by those of skill in the art as endpoint parameters. […] In the particular M109 assay described and used to test the novel dynemicin analogs, the median time to establish a baseline tumor burden (arbitrarily set at 1 g tumor) was 4 days.
A standard M109 solid tumor assay was set up to compare compound 5582 and 4229 with neocarzinostatin and esperamicin A1. Female mice were injected subcutaneously with 0.1 mL of a 0.2% brei of M109 tumor cells, prepared from 2 g tumor per 100 mL PBS (phosphate buffered saline).
In another test, compounds 5582 and 4229 were evaluated in mice implanted with M109 on a 5 injection per day every two days schedule beginning on day 1 post implant and compared with SC tumored mice.

Turning to esperamicin A1, the T/C value was determined as 11 days; the “lifespan and tumor growth delay (in words)” value was “increased lifespan and delay in tumor growth”.

B1: neocarzinostatin: clinically tested compound; positive reference compound (protein, UniProt P0A3R9 35-147, looked up)
Neocarzinostatin: AAPTATVTPSSGLSDGTVVKVAGAGLQAGTAYDVGQCAWVDTGVLACNPADFSSVTADANGSASTSLTVRRSFEGFLFDGTRWGTVDCTTAACQVGLSDAAGNGPEGVAISFN
modifications: enediyne chromophore
Consider B1, for which the T/C value is listed as 19.3 days; the “lifespan and tumor growth delay (in words)” value is “increased lifespan and delay in tumor growth”.
